Earlier results as cited in patent US7276228B2, “Methods for treating hematological disorders through inhibition of DNA methylation and histone deacetylase” (SuperGen, Inc., priority 2001, dated 2007).

Columns and labels:
[1] = system: mammalian HDAC; settings: Yoshida et al. (1990)
[2] = system: DNA methyltransferase; settings: decitabine replacing 5-methylcytosine at a site of methylation in DNA; Juttermann et al. (1994)
[3] = system: HDAC; settings: for concentration at which HDAC activity is inhibited: literature statements

Compound: CC(/C=C/C(=O)NO)=C\[C@@H](C)C(=O)c1ccc(N(C)C)cc1 [TSA, trichostatin A]
- inhibition of mammalian HDAC [1]: potent inhibitor

Compound: Nc1ncn([C@H]2C[C@H](O)[C@@H](CO)O2)c(=O)n1 [decitabine, 5-aza-2′-deoxycytidine]
- inactivation of DNA methyltransferase [2]: irreversible inactivation

Compound: depudecin
- concentration at which HDAC activity is inhibited [3]: micromolar concentrations

Compound: O=C(/C=C/c1cccc(C(=O)NO)c1)NO [CBHA, m-carboxy-cinnamic acid bishydroxamic acid]
- concentration at which HDAC is inhibited ([3]; in vitro or in vivo, Glick et al. (1999)): micromolar concentration or lower

Compound: C/C=C1\NC(=O)[C@H]2CSSCC/C=C/[C@H](CC(=O)N[C@H](C(C)C)C(=O)N2)OC(=O)[C@H](C(C)C)NC1=O [FR901228]
- concentration at which HDAC activity is inhibited [3]: micromolar concentrations
